Calls of active or inactive are those of the source. The rule behind the calls is not given here.
Legend:
[1] = tested on: HCT-116; assay: Induction of molecular glue effect mediated DNMT1 degradation in human HCT-116 cells assessed as reduction in DNMT1 protein level by measuring maximal efficacy at 1 uM incubated for 24 hrs by Western blot analysis relative to control; format: cell-based
[2] = (§1) Induction of molecular glue effect mediated DNMT1 degradation in human HCT-116 cells assessed as reduction in DNMT1 protein level incubated for 24 hrs by Western blot analysis; format: cell-based; details: HCT-116, 24 h
[3] = molecular target: DNA (cytosine-5)-methyltransferase 1 (Homo sapiens, UniProt P26358); assay: Inhibition of human DNMT1 (350 to 1600 residues) extracted from Escherichia coli BL21 (DE3)-codon plus-RIL cells in presence of SAM and hemimethylated DNA
Chain of DNA (cytosine-5)-methyltransferase 1 (P26358 whole entry, the tested form may be a part): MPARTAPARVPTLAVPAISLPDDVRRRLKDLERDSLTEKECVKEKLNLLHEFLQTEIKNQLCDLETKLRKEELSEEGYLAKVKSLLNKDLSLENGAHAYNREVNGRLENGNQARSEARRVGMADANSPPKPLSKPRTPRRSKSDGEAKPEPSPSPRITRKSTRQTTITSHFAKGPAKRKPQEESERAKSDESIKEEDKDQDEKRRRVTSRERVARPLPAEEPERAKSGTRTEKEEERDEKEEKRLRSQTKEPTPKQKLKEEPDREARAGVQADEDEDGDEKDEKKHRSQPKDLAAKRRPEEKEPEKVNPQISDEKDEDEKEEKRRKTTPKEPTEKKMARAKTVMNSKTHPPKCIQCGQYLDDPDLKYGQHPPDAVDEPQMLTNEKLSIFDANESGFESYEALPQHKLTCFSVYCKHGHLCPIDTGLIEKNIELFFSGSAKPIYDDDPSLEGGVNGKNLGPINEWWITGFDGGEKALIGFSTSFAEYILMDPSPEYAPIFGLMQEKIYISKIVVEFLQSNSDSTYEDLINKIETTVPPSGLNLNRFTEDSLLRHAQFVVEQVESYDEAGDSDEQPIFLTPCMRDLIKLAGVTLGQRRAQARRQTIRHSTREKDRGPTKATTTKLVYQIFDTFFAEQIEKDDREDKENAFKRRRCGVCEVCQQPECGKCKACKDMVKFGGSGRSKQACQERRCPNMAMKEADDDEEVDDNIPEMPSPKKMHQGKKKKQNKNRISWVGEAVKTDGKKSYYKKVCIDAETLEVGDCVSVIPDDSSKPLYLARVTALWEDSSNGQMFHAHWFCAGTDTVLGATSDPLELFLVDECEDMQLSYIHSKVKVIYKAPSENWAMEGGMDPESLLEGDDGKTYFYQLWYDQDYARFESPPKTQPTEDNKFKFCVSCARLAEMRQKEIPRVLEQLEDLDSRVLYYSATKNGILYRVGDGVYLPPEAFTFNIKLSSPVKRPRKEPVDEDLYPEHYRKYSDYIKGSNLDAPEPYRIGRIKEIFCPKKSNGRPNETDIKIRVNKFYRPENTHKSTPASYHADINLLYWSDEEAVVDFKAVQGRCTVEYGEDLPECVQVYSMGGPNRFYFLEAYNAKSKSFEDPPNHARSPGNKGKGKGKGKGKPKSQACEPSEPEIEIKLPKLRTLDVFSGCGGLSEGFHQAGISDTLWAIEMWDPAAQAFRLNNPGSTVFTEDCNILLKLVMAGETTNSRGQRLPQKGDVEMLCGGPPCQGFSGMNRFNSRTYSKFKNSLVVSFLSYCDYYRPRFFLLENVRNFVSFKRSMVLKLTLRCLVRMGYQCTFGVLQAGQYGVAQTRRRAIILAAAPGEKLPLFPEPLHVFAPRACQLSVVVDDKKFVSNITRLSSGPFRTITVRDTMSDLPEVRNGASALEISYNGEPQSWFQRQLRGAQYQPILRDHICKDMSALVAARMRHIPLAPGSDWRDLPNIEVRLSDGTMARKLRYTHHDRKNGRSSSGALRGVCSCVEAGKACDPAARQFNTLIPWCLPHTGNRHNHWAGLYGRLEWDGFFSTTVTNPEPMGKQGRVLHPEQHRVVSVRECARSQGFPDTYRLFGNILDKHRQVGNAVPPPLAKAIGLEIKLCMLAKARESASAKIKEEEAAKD

[4] = tested on: HCT-116; assay: Induction of molecular glue effect mediated DNMT1 degradation in human HCT-116 cells assessed as reduction in DNMT1 protein level at 500 nM by Western blot analysis; format: cell-based; details: time 2-24 hrs
[5] = tested on: HCT-116; assay: Induction of molecular glue effect mediated DNMT1 degradation in human HCT-116 cells assessed as reduction in DNMT1 protein level at 500 nM measured after 2 hrs by Western blot analysis relative to control; format: cell-based; set-up: scale not given: the % may be the effect or the level left
[6] = tested on: NCI-H1299; assay: Induction of molecular glue effect mediated DNMT1 degradation in human NCI-H1299 cells assessed as reduction in DNMT1 protein level at 100 nM preincubated with MLN4924 for 2 hrs followed by compound addition and measured after 24 hrs by Western blot analysis; format: cell-based
[7] = tested on: NCI-H1299; assay: Effect on DNMT1 mRNA level in human NCI-H1299 cells at 500 nM incubated for 24 hrs by RT-qPCR analysis; format: functional, cell-based
[8] = tested on: HCT-116; assay: Downregulation of DNMT1 protein level in human HCT-116 cells at 1 uM incubated for 12 hrs by MS-based global proteomic analysis; format: functional, cell-based
[9] = tested on: MDA-MB-468; assay: Effect on DNMT1 mRNA level in human MDA-MB-468 cells at 500 nM incubated for 24 hrs by RT-qPCR analysis; format: functional, cell-based
[10] = tested on: HCT-116; assay: Induction of molecular glue effect mediated DNMT1 degradation in human HCT-116 cells transfected with Smurf2 siRNA assessed as reduction in DNMT1 protein level at 100 nM measured after 24 hrs by Western blot analysis; format: cell-based
[11] = tested on: HCT-116; assay: Induction of molecular glue effect mediated DNMT1 degradation in human HCT-116 cells assessed as reduction in DNMT1 protein level at 100 nM preincubated with MG132 for 2 hrs followed by compound addition and measured after 24 hrs by Western blot analysis; format: cell-based
[12] = tested on: MDA-MB-468; assay: Induction of molecular glue effect mediated DNMT1 degradation in human MDA-MB-468 cells assessed as reduction in DNMT1 protein level at 100 nM preincubated with MLN4924 for 2 hrs followed by compound addition and measured after 24 hrs by Western blot analysis; format: cell-based
[13] = tested on: HCT-116; assay: Induction of molecular glue effect mediated DNMT1 degradation in human HCT-116 cells assessed as reduction in DNMT1 protein level by measuring half-life at 500 nM preincubated with cycloheximide for 2 hrs followed by compound administration and measured after 24 hrs by Western blot analysis; format: cell-based
[14] = tested on: HCT-116; assay: Induction of molecular glue effect mediated DNMT3B degradation in human HCT-116 cells assessed as reduction in DNMT3B protein level at 500 nM incubated for 24 hrs by Western blot analysis; format: cell-based
[15] = tested on: HCT-116; assay: Induction of molecular glue effect mediated DNMT1 degradation in human HCT-116 cells assessed as reduction in DNMT1 protein level at 100 nM preincubated with heclin for 2 hrs followed by compound addition and measured after 24 hrs by Western blot analysis; format: cell-based
[16] = tested on: HCT-116; assay: Induction of molecular glue effect mediated DNMT3A degradation in human HCT-116 cells assessed as reduction in DNMT3A protein level at 500 nM incubated for 24 hrs by Western blot analysis; format: cell-based
[17] = tested on: HCT-116; assay: Induction of molecular glue effect mediated DNMT1 degradation in human HCT-116 cells assessed as reduction in DNMT1 protein level at 100 nM preincubated with TAK-243 for 2 hrs followed by compound addition and measured after 24 hrs by Western blot analysis; format: cell-based
[18] = tested on: MV4-11; assay: Antiproliferative activity against human MV4-11 cells assessed as inhibition of cell growth at 0.177 to 15 uM incubated for 7 days by CCK8 assay; format: functional, cell-based; details: dose 0.177-15 µM, time 7.0 day
[19] = tested on: HCT-116; assay: Induction of molecular glue effect mediated DNMT1 degradation in human HCT-116 cells transfected with WWP1 siRNA assessed as reduction in DNMT1 protein level at 100 nM measured after 24 hrs by Western blot analysis; format: cell-based
[20] = tested on: HCT-116; assay: Induction of molecular glue effect mediated DNMT1 degradation in human HCT-116 cells assessed as reduction in DNMT1 protein level at 100 nM preincubated with MLN4924 for 2 hrs followed by compound addition and measured after 24 hrs by Western blot analysis; format: cell-based
[21] = tested on: HCT-116; assay: Induction of molecular glue effect mediated DNMT1 degradation in human HCT-116 cells transfected with UHRF1 siRNA assessed as reduction in DNMT1 protein level at 100 nM measured after 24 hrs by Western blot analysis; format: cell-based
[22] = tested on: NCI-H1299; assay: Induction of molecular glue effect mediated DNMT1 degradation in human NCI-H1299 cells assessed as reduction in DNMT1 protein level at 100 nM preincubated with MG132 for 2 hrs followed by compound addition and measured after 24 hrs by Western blot analysis; format: cell-based
[23] = tested on: MDA-MB-468; assay: Induction of molecular glue effect mediated DNMT1 degradation in human MDA-MB-468 cells assessed as reduction in DNMT1 protein level at 100 nM preincubated with MG132 for 2 hrs followed by compound addition and measured after 24 hrs by Western blot analysis; format: cell-based
[24] = tested on: HCT-116; assay: Induction of molecular glue effect mediated DNMT1 degradation in human HCT-116 cells transfected with NEDD4 siRNA assessed as reduction in DNMT1 protein level at 100 nM measured after 24 hrs by Western blot analysis; format: cell-based
[25] = tested on: HCT-116; assay: Induction of molecular glue effect mediated DNMT1 degradation in human HCT-116 cells assessed as reduction in DNMT1 protein level at 100 nM preincubated with TRAF6 inhibitor C25-140 for 2 hrs followed by compound addition and measured after 24 hrs by Western blot analysis; format: cell-based
[26] = tested on: HCT-116; assay: Antiproliferative activity against human HCT-116 cells assessed as inhibition of cell growth upto 15 uM incubated for 7 days by CCK8 assay relative to control; format: functional; details: time 7 day, up to 15 µM
[27] = tested on: HCT-116; assay: Induction of molecular glue effect mediated DNMT1 degradation in human HCT-116 cells assessed as reduction in DNMT1 protein level at 500 nM measured after 24 hrs by Western blot analysis relative to control; format: cell-based; set-up: scale not given: the % may be the effect or the level left
[28] = tested on: HCT-116; assay: as §1; format: cell-based
[29] = tested on: HCT-116; assay: Effect on DNMT1 mRNA level in human HCT-116 cells at 500 nM incubated for 24 hrs by RT-qPCR analysis; format: functional, cell-based
[30] = tested on: HCT-116; assay: Induction of molecular glue effect mediated DNMT1 degradation in human HCT-116 cells assessed as reduction in DNMT1 protein level at 100 nM preincubated with lysosome inhibitor CQ for 2 hrs followed by compound addition and measured after 24 hrs by Western blot analysis; format: cell-based

In the case of `CCc1c(C#N)c(SC(C(N)=O)c2ccccc2)nc(N2CCN(C(=O)c3cc[nH]n3)CC2)c1C#N` (stereo not drawn), the Emax [1] is reported as 89% and the DC50 [2] is reported as 144 nM.
For `CCc1c(C#N)c(SC(C(N)=O)c2ccccc2)nc(N2CCN(C(=O)c3nccs3)CC2)c1C#N` (stereo not drawn), the Emax [1] was 90% and the DC50 [2] was 89 nM.
Work on `CCc1c(C#N)c(SC(C(N)=O)c2ccccc2)nc(N2CCC(NC(=O)C34CC5CC(CC(C5)C3)C4)CC2)c1C#N` (stereo not drawn) yielded an Emax [1] of 92% and a DC50 [2] of 35 nM.
In the case of `CCc1c(C#N)c(SC(C(N)=O)c2ccccc2)nc(N2CCC(NC(C)=O)CC2)c1C#N` (stereo not drawn), the Emax [1] is reported as 13% and the DC50 [2] is reported as > 1000 nM.
In the case of `CCc1c(C#N)c(SC(C(N)=O)c2ccccc2)nc(N2CCC(N(C)C)CC2)c1C#N` (stereo not drawn), the Emax [1] is reported as 92% and the DC50 [2] is reported as 35 nM.
Work on `CCc1c(C#N)c(SC(C(N)=O)c2ccccc2)nc(N2CCN(C(C)=O)CC2)c1C#N` (stereo not drawn) yielded an Emax [1] of 87% and a DC50 [2] of 107 nM.
Work on `CCc1c(C#N)c(SC(C(N)=O)c2ccccc2)nc(N2CCNCC2)c1C#N` (stereo not drawn) yielded an Emax [1] of 78% and a DC50 [2] of 184 nM.
For `CCCNC(=O)C(Sc1nc(N2CCC(N)CC2)c(C#N)c(CC)c1C#N)c1ccccc1` (stereo not drawn), the Emax [1] was 13% and the DC50 [2] was > 1000 nM.
`CCc1c(C#N)c(SC(C(N)=O)c2ccccc2)nc(N2CCC(NC(=O)C(C)(C)C)CC2)c1C#N` (stereo not drawn) showed an Emax [1] of 90% and a DC50 [2] of 39 nM.
For `CCC(=O)N1CCN(c2nc(SC(C(N)=O)c3ccccc3)c(C#N)c(CC)c2C#N)CC1` (stereo not drawn), the Emax [1] was 89% and the DC50 [2] was 51 nM.
Molecule `CCc1c(C#N)c(SC(C(N)=O)c2ccccc2)nc(N2CCNC(=O)CC2)c1C#N` (stereo not drawn) has an Emax [1] of 58% and a DC50 [2] of 819 nM.
`CCc1c(C#N)c(SC(C(N)=O)c2ccccc2)nc(N2CCN(C(=O)CC(C)C)CC2)c1C#N` (stereo not drawn) gave an Emax [1] of 93% and a DC50 [2] of 65 nM.
For `CCc1c(C#N)c(SC(C(N)=O)c2ccccc2)nc(N2CCN(C(=O)C34CC5CC(CC(C5)C3)C4)CC2)c1C#N` (stereo not drawn), the Emax [1] was 80% and the DC50 [2] was 409 nM.
With `CCc1c(C#N)c(SC(C(N)=O)c2ccccc2)nc(N2CCN(C)CC2)c1C#N` (stereo not drawn) the Emax [1] was 46% and the DC50 [2] was > 1000 nM.
For `CCc1c(C#N)c(NCC(N)=O)nc(SC(C(N)=O)c2ccccc2)c1C#N` (stereo not drawn), the Emax [1] was 32%, the IC50 [3] was > 3000 nM and the DC50 [2] was > 1000 nM.
`CCc1c(C#N)c(SC(C(N)=O)c2ccccc2)nc(N2CCN(C(=O)c3ccc(C(C)C)s3)CC2)c1C#N` (stereo not drawn) gave an Emax [1] of 71% and a DC50 [2] of 405 nM.
With `CCc1c(C#N)c(SC(C(N)=O)c2ccccc2)nc(N2CCC(N)CC2)c1C#N` (stereo not drawn) the Activity [4] was “Time-dependent-effect”, the Activity [5] was < 30% and the Activity [6] was “Active”. For the same molecule, the Activity [7] was “inactive”, the Activity [8] was “Active” and the Activity [9] was “inactive”. For the same molecule, the Activity [10] was “Active”, the Activity [11] was “inactive” and the Activity [12] was “Active”. For the same molecule, the T1/2 [13] was < 4 h, the Emax [1] was 89% and the Activity [14] was “inactive”. For the same molecule, the Activity [15] was “Not active; Partial Rescue Of Degradation Observed”, the Activity [16] was “inactive” and the Activity [17] was “inactive”. For the same molecule, the Activity [18] was “Active”, the Activity [19] was “Active” and the Activity [20] was “Active”. For the same molecule, the Activity [21] was “Not active; Partial Rescue Of Degradation Observed”, the Activity [22] was “inactive” and the Activity [23] was “inactive”. For the same molecule, the Activity [24] was “Active”, the Activity [25] was “Active” and the “inhibition (INH)” value [26] was <50%. The Activity [27] was 100%, the Activity [28] was “Dose-dependent-effect” and the Activity [29] was “inactive”. The Activity [30] was “Active”.
`CCc1c(C#N)c(SC(C(N)=O)c2ccccc2)nc(N2CCN(C(=O)C3CNC3)CC2)c1C#N` (stereo not drawn) showed an Emax [1] of 56% and a DC50 [2] of 820 nM.

Source: ChEMBL document CHEMBL6121066, “Structure-Activity Relationship Studies of DNA Methyltransferase 1 Monovalent Degraders” (J Med Chem, 2025)
